{
  "source": "patent US4511504A",
  "about": "“Carboxyalkyl peptide derivatives” (G.D. Searle & Co., priority 1983, dated 1985)",
  "target": "T1, Human Rheumatoid Synovial Collagenase (Homo sapiens, UniProt P03956)",
  "T1 construct": "Human Rheumatoid Synovial Collagenase; from tissue; host or cells: human rheumatoid synovium (from the name only; the preparation is not described)",
  "T1 sequence (P03956 100-469)": "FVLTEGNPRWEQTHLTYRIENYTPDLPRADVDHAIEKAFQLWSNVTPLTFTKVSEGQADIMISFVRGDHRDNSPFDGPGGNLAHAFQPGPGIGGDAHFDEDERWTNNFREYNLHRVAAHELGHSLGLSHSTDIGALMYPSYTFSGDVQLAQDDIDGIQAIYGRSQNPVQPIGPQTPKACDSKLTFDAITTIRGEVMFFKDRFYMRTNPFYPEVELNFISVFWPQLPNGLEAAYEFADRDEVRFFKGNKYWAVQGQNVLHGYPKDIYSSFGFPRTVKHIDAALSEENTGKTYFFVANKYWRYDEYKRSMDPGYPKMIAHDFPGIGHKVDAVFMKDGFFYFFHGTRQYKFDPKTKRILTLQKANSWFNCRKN",
  "assay": "Collagenase inhibition, procedure of Cawston and Barrett (acetyl 14C collagen hydrolysis)",
  "type": "biochemical",
  "conditions": "inhibitor concentration effecting 50% inhibition; 37° C., 16 hours, native acetyl 14C collagen, Tris HCl-CaCl2 pH 7.6",
  "experimental": "This was determined following the procedure of Cawston and Barrett, Anal. Biochem., 99, 340-345 (1979) whereby the 1 mM of the inhibitor being tested or dilutions thereof are incubated at 37° C. for 16 hours with native collagen and collagenase (buffered with Tris HCl--CaCl2; pH 7.6). The collagen is acetyl ^14 C collagen. The samples are centrifuged to sediment undigested collagen and an aliquot of the radiactive supernatant removed for assay on a scintillation counter as a measure of hydrolysis. The collagenase activity in the presence of 1 mM inhibitor, or a dilution thereof is compared to activity in a control devoid of inhibitor and the results reported as that inhibitor concentration effecting 50% inhibition of the collagenase.",
  "data": [
    {"smiles": "CCCCNC(=O)[C@H](C)NC(=O)[C@H](CC(C)(C)C)N[C@H](C)C(=O)O", "note": "[Example 23, N-[2-(S)-N-(1-(R)-Carboxyethyl)amino-4,4-dimethylpentanoyl]-L-alanine N-Butylamide]", "values": [
      {"measurement": "IC50", "result": 25, "unit": "µM"}
    ]}
  ]
}
